# According to patent US9029404B2, “Apoptosis-inducing agents for the treatment of cancer and immune and autoimmune diseases” (AbbVie Inc., priority 2008, dated 2015):
# Target: GST-Bcl-2 (Homo sapiens, UniProt P10415)
# Experiment: Time Resolved-Fluorescence Resonance Energy Transfer (TR-FRET) Bcl-2 binding assay
# Details: competition with F-Bak peptide probe (100 nM); GST-Bcl-2 1 nM; Tb-anti-GST 1 nM; 3 hours at room temperature; Wang's equation
# Method: Determination of the utility of compounds having Formula (I) as binders to and inhibitors of anti-apoptotic Bcl-2 proteins was performed using the Time Resolved-Fluorescence Resonance Energy Transfer (TR-FRET) Assay. Tb-anti-GST antibody was purchased from Invitrogen (Catalog No. PV4216).
# (§1) Representative compounds were serially diluted in dimethyl sulfoxide (DMSO) starting at 50 μM (2× starting concentration; 10% DMSO) and 10 μL were transferred into a 384-well plate. The samples are then mixed on a shaker for 1 minute and incubated for an additional 3 hours at room temperature. For each assay, the probe/antibody and protein/probe/antibody were included on each assay plate as negative and positive controls, respectively. Fluorescence was measured on the Envision (Perkin Elmer) using a 340/35 nm excitation filter and 520/525 (F-Bak peptide) and 495/510 nm (Tb-labeled anti-Histidine antibody) emission filters.
# as §1, with “The” for “Representative compounds were serially diluted in dimethyl sulfoxide (DMSO) starting at 50 μM (2× starting concentration; 10% DMSO) and 10 μL were transferred into a 384-well plate. The”, “were” for “are”
# The inhibition constant (Ki) is the dissociation constant of an enzyme-inhibitor complex or a protein/small molecule complex, wherein the small molecule is inhibiting binding of one protein to another protein. So a large Ki value indicates a low binding affinity and a small Ki value indicates a high binding affinity.
# Sequence of GST-Bcl-2 (P10415 whole entry): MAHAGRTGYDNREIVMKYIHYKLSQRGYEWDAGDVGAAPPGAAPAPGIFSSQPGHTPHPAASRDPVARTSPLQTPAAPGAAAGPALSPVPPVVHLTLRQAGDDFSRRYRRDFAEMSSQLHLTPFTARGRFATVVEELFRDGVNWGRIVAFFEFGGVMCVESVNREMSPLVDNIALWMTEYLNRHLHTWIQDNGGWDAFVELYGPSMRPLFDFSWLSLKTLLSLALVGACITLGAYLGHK
row,SMILES,Ki
1,"CC1(C)CCC(CN2CCN(c3ccc(C(=O)NS(=O)(=O)c4ccc(OCC5(F)CCOCC5)c([N+](=O)[O-])c4)c(Oc4cc(F)cc5[nH]ncc45)c3)CC2)=C(c2ccc(Cl)cc2)C1 [Example 433, 4-(4-{[2-(4-chlorophenyl)-4,4-dimethylcyclohex-1-en-1-yl]methyl}piperazin-1-yl)-2-[(6-fluoro-1H-indazol-4-yl)oxy]-N-({4-[(4-fluorotetrahydro-2H-pyran-4-yl)methoxy]-3-nitrophenyl}sulfonyl)benzamide]",< 0.01 nM
2,"Cn1c(=O)[nH]c2cccc(Oc3cc(N4CCN(CC5=C(c6ccc(Cl)cc6)CC(C)(C)CC5)CC4)ccc3C(=O)NS(=O)(=O)c3ccc(NCC4CN(C5CC5)CCO4)c([N+](=O)[O-])c3)c21 (centres unmarked) [Example 439, 4-(4-{[2-(4-chlorophenyl)-4,4-dimethylcyclohex-1-en-1-yl]methyl}piperazin-1-yl)-N-[(4-{[(4-cyclopropylmorpholin-2-yl)methyl]amino}-3-nitrophenyl)sulfonyl]-2-[(3-methyl-2-oxo-2,3-dihydro-1H-benzimidazol-4-yl)oxy]benzamide]",< 0.01 nM
3,"CC1(C)CC(c2ccc(Cl)cc2)=C(CN2CCN(c3ccc(C(=O)NS(=O)(=O)c4ccc(OCC5(F)CCOCC5)c(Cl)c4)c(Oc4cc5cc[nH]c5cc4F)c3)CC2)CO1 [Example 413, N-({3-chloro-4-[(4-fluorotetrahydro-2H-pyran-4-yl)methoxy]phenyl}sulfonyl)-4-(4-{[4-(4-chlorophenyl)-6,6-dimethyl-5,6-dihydro-2H-pyran-3-yl]methyl}piperazin-1-yl)-2-[(6-fluoro-1H-indol-5-yl)oxy]benzamide]",0.739 nM
4,"CO[C@H]1CC[C@H](CNc2ccc(S(=O)(=O)NC(=O)c3ccc(N4CCN(CC5=C(c6ccc(Cl)cc6)CC(C)(C)CC5)CC4)cc3Oc3cccc4[nH]nc(N)c34)cc2[N+](=O)[O-])CC1 [Example 435, 2-[(3-amino-1H-indazol-4-yl)oxy]-4-(4-{[2-(4-chlorophenyl)-4,4-dimethylcyclohex-1-en-1-yl]methyl}piperazin-1-yl)-N-[(4-{[(trans-4-methoxycyclohexyl)methyl]amino}-3-nitrophenyl)sulfonyl]benzamide]",0.01 nM
5,"CC1(C)CCC(CN2CCN(c3ccc(C(=O)NS(=O)(=O)c4ccc(NCC5CCC(C)(O)CC5)c([N+](=O)[O-])c4)c(Oc4cnc(N)c(Cl)c4)c3)CC2)=C(c2ccc(Cl)cc2)C1 (stereo not drawn) [Example 434, 2-[(6-amino-5-chloropyridin-3-yl)oxy]-4-(4-{[2-(4-chlorophenyl)-4,4-dimethylcyclohex-1-en-1-yl]methyl}piperazin-1-yl)-N-[(4-{[(trans-4-hydroxy-4-methylcyclohexyl)methyl]amino}-3-nitrophenyl)sulfonyl]benzamide]",< 0.01 nM
6,"CCC1(O)CCC(CNc2ccc(S(=O)(=O)NC(=O)c3ccc(N4CCN(CC5=C(c6ccc(Cl)cc6)CC(C)(C)CC5)CC4)cc3Oc3cnc(N)c(Cl)c3)cc2[N+](=O)[O-])CC1 (stereo not drawn) [Example 447, 2-[(6-amino-5-chloropyridin-3-yl)oxy]-4-(4-{[2-(4-chlorophenyl)-4,4-dimethylcyclohex-1-en-1-yl]methyl}piperazin-1-yl)-N-[(4-{[(cis-4-ethyl-4-hydroxycyclohexyl)methyl]amino}-3-nitrophenyl)sulfonyl]benzamide]",0.029 nM
7,"CC1(C)CCC(CN2CCN(c3ccc(C(=O)NS(=O)(=O)c4ccc(OC[C@H]5CC[C@@](C)(O)CC5)c([N+](=O)[O-])c4)c(Oc4cnc(N)c(Cl)c4)c3)CC2)=C(c2ccc(Cl)cc2)C1 [Example 436, 2-[(6-amino-5-chloropyridin-3-yl)oxy]-4-(4-{[2-(4-chlorophenyl)-4,4-dimethylcyclohex-1-en-1-yl]methyl}piperazin-1-yl)-N-({4-[(cis-4-hydroxy-4-methylcyclohexyl)methoxy]-3-nitrophenyl}sulfonyl)benzamide]",< 0.01 nM
8,"CC1(C)CCC(CN2CCN(c3ccc(C(=O)NS(=O)(=O)c4ccc(NC[C@H]5CC[C@H](C#N)CC5)c([N+](=O)[O-])c4)c(Oc4cnc(N)c(Cl)c4)c3)CC2)=C(c2ccc(Cl)cc2)C1 [Example 401, Trans-2-[(6-amino-5-chloropyridin-3-yl)oxy]-4-(4-{[2-(4-chlorophenyl)-4,4-dimethylcyclohex-1-en-1-yl]methyl}piperazin-1-yl)-N-[(4-{[(4-cyanocyclohexyl)methyl]amino}-3-nitrophenyl)sulfonyl]benzamide]",0.035 nM
9,"CC1(C)CCC(CN2CCN(c3ccc(C(=O)NS(=O)(=O)c4ccc(OCC5CCC6(CC5)COC6)c([N+](=O)[O-])c4)c(Oc4cnc(N)c(Cl)c4)c3)CC2)=C(c2ccc(Cl)cc2)C1 [Example 440, 2-[(6-amino-5-chloropyridin-3-yl)oxy]-4-(4-{[2-(4-chlorophenyl)-4,4-dimethylcyclohex-1-en-1-yl]methyl}piperazin-1-yl)-N-{[3-nitro-4-(2-oxaspiro[3.5]non-7-ylmethoxy)phenyl]sulfonyl}benzamide]",0.022 nM
10,"CC1(C)CCC(CN2CCN(c3ccc(C(=O)NS(=O)(=O)c4cnc(OC[C@H]5CC[C@H](O)CC5)c(Cl)c4)c(Oc4cc(F)cc5[nH]ncc45)c3)CC2)=C(c2ccc(Cl)cc2)C1 [Example 414, N-({5-chloro-6-[(trans-4-hydroxycyclohexyl)methoxy]pyridin-3-yl}sulfonyl)-4-(4-{[2-(4-chlorophenyl)-4,4-dimethylcyclohex-1-en-1-yl]methyl}piperazin-1-yl)-2-[(6-fluoro-1H-indazol-4-yl)oxy]benzamide]",0.014 nM
11,"CC1(C)CCC(CN2CCN(c3ccc(C(=O)NS(=O)(=O)c4ccc(NCC5CCOCC5)c([N+](=O)[O-])c4)c(Oc4cccc5[nH]nc(N)c45)c3)CC2)=C(c2ccc(Cl)cc2)C1 [Example 431, 2-[(3-amino-1H-indazol-4-yl)oxy]-4-(4-{[2-(4-chlorophenyl)-4,4-dimethylcyclohex-1-en-1-yl]methyl}piperazin-1-yl)-N-({3-nitro-4-[(tetrahydro-2H-pyran-4-ylmethyl)amino]phenyl}sulfonyl)benzamide]",< 0.01 nM
12,"CC1(C)CCC(CN2CCN(c3ccc(C(=O)NS(=O)(=O)c4ccc(NCC5CCC(C)(O)CC5)c([N+](=O)[O-])c4)c(Oc4cnc(N)c(Cl)c4)c3)CC2)=C(c2ccc(Cl)cc2)C1 (stereo not drawn) [Example 437, 2-[(6-amino-5-chloropyridin-3-yl)oxy]-4-(4-{[2-(4-chlorophenyl)-4,4-dimethylcyclohex-1-en-1-yl]methyl}piperazin-1-yl)-N-[(4-{[(cis-4-hydroxy-4-methylcyclohexyl)methyl]amino}-3-nitrophenyl)sulfonyl]benzamide]",< 0.01 nM
13,"CC1(C)CCC(CN2CCN(c3ccc(C(=O)NS(=O)(=O)c4ccc(NCC5(F)CCOCC5)c([N+](=O)[O-])c4)c(Oc4cccc5[nH]nc(N)c45)c3)CC2)=C(c2ccc(Cl)cc2)C1 [Example 428, 2-[(3-amino-1H-indazol-4-yl)oxy]-4-(4-{[2-(4-chlorophenyl)-4,4-dimethylcyclohex-1-en-1-yl]methyl}piperazin-1-yl)-N-[(4-{[(4-fluorotetrahydro-2H-pyran-4-yl)methyl]amino}-3-nitrophenyl)sulfonyl]benzamide]",< 0.01 nM
14,"CC1(C)CCC(CN2CCN(c3ccc(C(=O)NS(=O)(=O)c4cnc(OCC5CCC(C)(O)CC5)c(Cl)c4)c(Oc4cccc5[nH]nc(N)c45)c3)CC2)=C(c2ccc(Cl)cc2)C1 (stereo not drawn) [Example 445, 2-[(3-amino-1H-indazol-4-yl)oxy]-N-({5-chloro-6-[(trans-4-hydroxy-4-methylcyclohexyl)methoxy]pyridin-3-yl}sulfonyl)-4-(4-{[2-(4-chlorophenyl)-4,4-dimethylcyclohex-1-en-1-yl]methyl}piperazin-1-yl)benzamide]",< 0.01 nM
15,"CC1(C)CCC(CN2CCN(c3ccc(C(=O)NS(=O)(=O)c4cnc(OCC5CCC(C)(O)CC5)c(Cl)c4)c(Oc4cccc5[nH]nc(Cl)c45)c3)CC2)=C(c2ccc(Cl)cc2)C1 (stereo not drawn) [Example 446, N-({5-chloro-6-[(trans-4-hydroxy-4-methylcyclohexyl)methoxy]pyridin-3-yl}sulfonyl)-2-[(3-chloro-1H-indazol-4-yl)oxy]-4-(4-{[2-(4-chlorophenyl)-4,4-dimethylcyclohex-1-en-1-yl]methyl}piperazin-1-yl)benzamide]",0.015 nM
16,"CC1(C)CCC(CN2CCN(c3ccc(C(=O)NS(=O)(=O)c4cnc(OCC5CCC(C)(O)CC5)c(Cl)c4)c(Oc4cc(F)cc5[nH]ncc45)c3)CC2)=C(c2ccc(Cl)cc2)C1 (stereo not drawn) [Example 424, N-({5-chloro-6-[(trans-4-hydroxy-4-methylcyclohexyl)methoxy]pyridin-3-yl}sulfonyl)-4-(4-{[2-(4-chlorophenyl)-4,4-dimethylcyclohex-1-en-1-yl]methyl}piperazin-1-yl)-2-[(6-fluoro-1H-indazol-4-yl)oxy]benzamide]",< 0.01 nM
17,"CC1(C)CCC(CN2CCN(c3ccc(C(=O)NS(=O)(=O)c4cnc(OCC5(F)CCOCC5)c(Cl)c4)c(Oc4ccc(F)c5[nH]ncc45)c3)CC2)=C(c2ccc(Cl)cc2)C1 [Example 420, N-({5-chloro-6-[(4-fluorotetrahydro-2H-pyran-4-yl)methoxy]pyridin-3-yl}sulfonyl)-4-(4-{[2-(4-chlorophenyl)-4,4-dimethylcyclohex-1-en-1-yl]methyl}piperazin-1-yl)-2-[(7-fluoro-1H-indazol-4-yl)oxy]benzamide]",< 0.01 nM
